{"source": "PubChem BioAssay AID434997", "about": "(The Scripps Research Institute Molecular Screening Center, 2010)", "biological_target": "NADPH oxidase 1 (Homo sapiens) (UniProt Q9Y5S8)", "sequence (Q9Y5S8 whole entry, looked up)": "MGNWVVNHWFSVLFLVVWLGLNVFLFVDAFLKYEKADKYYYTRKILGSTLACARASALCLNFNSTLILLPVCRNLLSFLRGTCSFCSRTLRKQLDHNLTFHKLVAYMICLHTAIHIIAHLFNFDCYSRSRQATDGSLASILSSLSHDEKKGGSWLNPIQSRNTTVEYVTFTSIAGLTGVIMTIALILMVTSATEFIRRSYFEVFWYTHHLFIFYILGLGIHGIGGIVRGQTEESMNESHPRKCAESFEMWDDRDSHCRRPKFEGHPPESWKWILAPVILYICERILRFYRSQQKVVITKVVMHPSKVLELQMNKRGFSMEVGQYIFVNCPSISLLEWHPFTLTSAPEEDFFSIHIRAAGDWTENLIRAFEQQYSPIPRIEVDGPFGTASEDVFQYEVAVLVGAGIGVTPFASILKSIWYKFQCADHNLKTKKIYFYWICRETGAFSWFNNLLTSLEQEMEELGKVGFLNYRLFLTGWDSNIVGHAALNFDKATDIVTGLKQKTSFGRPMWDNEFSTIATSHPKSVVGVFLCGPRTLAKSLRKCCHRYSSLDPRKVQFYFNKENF", "experiment": "potency of NOX1 inhibition in cells – cell-based, luminescence, cherry picks 2, dose response (AID 434997)", "conditions": "NOX1-expressing cells, ROS luminescence", "note": "pIC50: −log10 of the molar value."}
{"smiles": "FC(F)(F)c1ccc2c(c1)Nc1ccccc1S2", "values": [{"measurement": "pIC50", "value": 6.49}]}
